Values quoted from earlier work, collected in US20040258838A1, “Method for preserving wood materials using precipitated copper compounds” (priority 2003, published 2004).

System: fish
Conditions: essentially 1 milligram per liter

[Cu] [copper]
level at which copper is extremely toxic to fish: below 1 part per million
